What was measured:
Test in all cases: relative viability (nuclei count vs DMSO), 5 days (fraction); higher = more cells survive
[1] = compound: CC1=NN=C(O1)C2=NN=C(C=C2)N3CCC(CC3)OC4=C(C=CC(=C4)F)Cl + CC(=O)c1c(C)c2cnc(Nc3ccc(N4CCNCC4)cn3)nc2n(C2CCCC2)c1=O [Palbociclib] (partner 0.5 µM)
Procedure, shortened: (§1)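 Lung cancer cell lines were seeded in 1536-well plates and dosed by pin tool the next day, with either a single drug or a fixed anchor-drug dose combined with five library-drug doses (not always all listed) spaced in √10 steps. Five days later, one step fixed the cells and stained their nuclei (final 0.05% Triton X-100, 1% formaldehyde, 1 ug/ml Hoechst), and nuclei were counted on 4× images. Relative viability is the nuclei count in treated wells divided by the count in vehicle wells, and each value is the median of duplicate plates.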

[2] = compound: CC1=NN=C(O1)C2=NN=C(C=C2)N3CCC(CC3)OC4=C(C=CC(=C4)F)Cl + CCNC(=O)c1noc(-c2cc(C(C)C)c(O)cc2O)c1-c1ccc(CN2CCOCC2)cc1 [Luminespib] (partner 0.01 µM)
Procedure, shortened: as §1

[3] = compound: CC(C)C[C@@H](C(=O)N[C@H](C(=O)OC1CCCC1)c1ccccc1)[C@H](O)C(=O)NO [Tosedostat] + N=C(N)NC(=N)NCCc1ccccc1 [Phenformin] (partner 250 µM)
Procedure, shortened: as §1

[4] = compound: CC1=NN=C(O1)C2=NN=C(C=C2)N3CCC(CC3)OC4=C(C=CC(=C4)F)Cl + COc1cccc2cc(-c3nc([C@H]4CC[C@H](C(=O)O)CC4)n4ncnc(N)c34)[nH]c12 [OSI-027] (partner 0.5 µM)
Procedure, shortened: as §1

## UMC-11
[1]; first compound 0.253 µM
  relative viability: 0.303
[1]; first compound 0.8 µM
  relative viability: 0.271
[1]; first compound 2.53 µM
  relative viability: 0.3
[1]; first compound 8 µM
  relative viability: 0.39
[2]; first compound 0.253 µM
  relative viability: 0.523
[2]; first compound 0.8 µM
  relative viability: 0.572
[2]; first compound 2.53 µM
  relative viability: 0.453
[2]; first compound 8 µM
  relative viability: 0.552
[3]; first compound 0.02 µM
  relative viability: 0.353
[3]; first compound 0.06325 µM
  relative viability: 0.328
[3]; first compound 0.2 µM
  relative viability: 0.298
[3]; first compound 0.6325 µM
  relative viability: 0.282
[3]; first compound 2 µM
  relative viability: 0.278
[4]; first compound 0.253 µM
  relative viability: 0.446
[4]; first compound 0.8 µM
  relative viability: 0.482
[4]; first compound 2.53 µM
  relative viability: 0.529
[4]; first compound 8 µM
  relative viability: 0.565

Source: the supplement of paper PMC10307832
